The values that follow come from patent US3971814A, “Benzo(b)thiophene derivatives” (priority 1972, dated 1976).

“Also recorded” adds a separate entry of the source.

In data set [1] the test system is Yeast Edema of the Rat Paw. The data set can be described thus: Yeast edema and determination of pain threshold in the rat paw. It counts as in vivo. To be noted: 3 h; for Volume (increase in paw volume, blank control = 100%) / Pain Threshold (change vs initial value): i.g. The method, then:
test animals are male rats (SIV 50) weighing 100 to 180 g. […] 10 animals belonged to each dosage group.
The volume of the paw is determined according to the method described by Enders and Heidbrink, the pain threshold according to that described by Randall and Selitto (Arch. Int. Pharmacodyn CXI: 409, 1957).
Following initial measurements, […] of a 5% suspension of dried yeast is injected subplantarly into the right paw and the test substances are administered immediately. The blank control group is given Tragacanth mucilage only. After 3 hours the pain threshold and the volume of the paw are determined again.
The mean value of the increase in paw volume of the animals of the blank control after 3 hours is rated 100%, and the mean value of the increase in paw volume of the animals of the substance groups expressed as a percentage thereof. Pain threshold after 3 hours reflects the increase or decrease in percent, compared to the initial value.
In order to be able to calculate the ED50 according to the method by Lichtfield and Wilcoxon (J.P.E.T. 96:99, 1949), those animals in a dose group are considered protected when the paw swelling was at least 40% less than that of the blank control.

Data set [2] deals with Granulation Tissue. The data set can be described thus: Cotton-pellet test (granulation tissue). It counts as in vivo. The following applies: rat; for Granulation Tissue % (Dry Weight) / Increase in Body Weight: i.g. The method, then: test animals are male rats (SIV 50) weighing 110 to 200 g. All test animals are kept fasting for 16 to 18 hours prior to the implantation of the pellets; after that food and water were available ad libitum. Each dose level of the chemical tested was administered to 12 animals. The substances were suspended in 1% Tragacanth mucilage and administered intragastrically by means of a stomach tube. The substances to be investigated and the control suspensions are administered once on the operating day following operation, and twice a day on the following 6 days (at intervals of 6 to 8 hours). The type of application and volume of liquid corresponded to that under B.
Under light ether anesthesia 4 sterile cotton pellets were implanted under the skin on the back of the animal. The weight of one pellet was 50 mg ± 0.5 mg. After 7 days treatment, the animals were sacrificed, the pellets removed with the granulation tissue, weighed and then dried in the incubator at +80°C to constant weight. The average dry weight of the granulation tissue of the control group was rated 100%, and deviations of the mean weights of the group treated with the test substance determined as a percentage thereof.
The weight of the animals is measured daily throughout the tests, and the percental increase determined. At the end of some tests, moreover, the suprarenal glands are removed and their weight determined.

Data set [3] relates to Granulation Tissue. The data set can be described thus: Cotton-pellet test (granulation tissue). In kind it is in vivo. The following applies: rat, sc., section K; for increase in body weight %: control 27.
A further data set can be described thus: in vivo. The following applies: mouse.
Data set [4] relates to Carrageenin Edema of the Rat Paw. Briefly: Carrageenin edema of the rat paw. It counts as in vivo. As to the method: test animals used are the same as stated under Example B and up to the initial measurement, the procedure corresponded to that described under this example.
After an initial measurement, the test substances are administered and after 60 minutes a 1% Carrageenin suspension is injected subplantarly (0.1 ml/paw). After 60 and 180 minutes the paw volume is again determined. Here, too, the blank control group was treated with the carrier alone.
The increase in the volume of the paw after 60 minutes is considered as the first phase of the biphase edema and that after 180 minutes, as compared to the 60-minute-value, as the second phase. Moreover, the total increase of the paw edema within 180 minutes, as compared to the initial value, is also determined.
Determination of the influence exerted by the substances upon the development of the paw edema and calculation of the ED50 are done as under Example B.

Data set [5] has as its system Kaolin Edema of the Rat Paw. The data set can be described thus: Kaolin edema of the rat paw. In kind it is in vivo. The method, then:
test animals used are the same as stated under Example B and up to the beginning of the test, the procedure corresponded to that described under this example.
After an initial measurement, a sterile 25% kaolin suspension was injected (0.05 ml/paw) subplantarly. The test substances are administered immediately, and after 60, 120, and 180 minutes the paw volume is again determined.
Evaluation of the tests was performed as stated under Example C, and the results so obtained presented below: […]

Data set [6] deals with Arthritis Induced by the Freund Adjuvant. The data set can be described thus: Adjuvant arthritis. It counts as in vivo. To be noted: rat, i.g. As to the method: test animals used are the same as described under Example E; food and water is given ad libitum.
On the first day of the test a 0.8% suspension of Mycobacterium butyrium in paraffin (0.05 or 0.1 ml/paw) is injected subplantarly into the left hind paw of the animals. […] From the 19th to the 22nd day the animals showing a reaction are treated intragastrically with the test substances. The right paw having been marked above the ankle-joint, the volume is determined daily from the 19th to the 22nd or 23rd day, according to the process described under Example B.
The volume of liquid, as well as of the carrier administered, corresponded to that described in the above tests.

Data set [7] has as its system male mice (NMRI). Briefly: Hot-plate test (analgesia). It counts as in vivo. The following applies: mouse. The method, then: male mice (NMRI) weighing 18 to 28 g are used as test animals. The animals are placed on a copper plate constantly kept at 55°C, and the time is measured until they lick their forepaws.
Following 3 initial measurements, the test substances are administered intragastrically. Afterwards the measurements are repeated over a period of 2 hours at intervals of 30 minutes. Each dose is administered to 10 animals selected from groups of 15 animals following the initial measurements.
The test substances are administered as a suspension in 1% Tragacanth mucilage, the volume of liquid amounting to 2 ml/100 g of body weight.
For the purpose of statistical evaluation according to Litchfield and Wilcoxon, those animals in which the reaction time has been extended by at least 100% are considered protected.
Background: Hot-plate and tail-flick tests time the reaction to a heat stimulus.

For the next data set, the system named is Granuloma Pouch. Briefly: Granuloma pouch test. In kind it is in vivo. To be noted: rat, i.g., 2 × 125 mg/kg daily. As to the method: Under light ether anesthesia 25 ml of air are injected under the shaved skin of the back. 0.5 ml of croton oil/animal (0.05%) are injected into the pouch formed by the air, and evenly distributed over the back by turning the animal.
On the third day croton oil (3%, 0.5 ml/animal) is again injected into this pouch.
The average dry weights of the granuloma pouches and the quantities of secretion of the groups subjected to treatment are then compared with those of the control group and the percental deviations calculated.
At the end of some tests the suprarenal glands are removed and the weight of these organs is also determined.
The weight of the animals is measured daily and the changes determined as a percentage.

In data set [8] the test system is increased body temperature of the rat. Briefly: Antipyresis (yeast-induced fever). In kind it is in vivo. To be noted: i.g. The method, then: test animals are male rats (SIV 50) weighing 100 to 180 g. 16 hours prior to the beginning of the test a 12% suspension of dried yeast (1 or 2 ml/100 g of body weight) is injected subcutaneously. When the maximum of the increase in body temperature is reached, following 3 to 4 initial measurements, the test substances are applied intragastrically and the development of the body temperature is observed for a period of 7 hours.
The test substances administered are suspended in Tragacanth mucilage; the volume of liquid administered amounting to 2 ml/100 g of body weight. In this test 2 control groups are used, one given sodium chloride subcutaneously (normal temperature group) and to the other group a yeast suspension is administered subcutaneously but, instead of the test substances, Tragacanth mucilage is administered intragastrically (fever control group).

A short description of data set [9]: Summary: calculated ED50 and therapeutic ratio. In kind it is in vivo, rat. The method, then:
From the ED50 and LD50 (A) the following therapeutic ratios for this test are calculated: […]

The nature of data set [10]: Overall summary of pharmacological results in words. In kind it is in vivo.
Data set [11] relates to male mice (NMRI). To be noted: mouse, in vivo.

As to `CCN(CC)CCNC(=N)c1sc2ccccc2c1O` [Example 30], the change in vivo at 150 mg/kg in data set [1] (sc., 150 mg/kg, section K (control -26)) was 18%. In data set [1] (sc., 150 mg/kg, section K, read-out: volume (paw, control = 100%)), the response vs control in vivo at 150 mg/kg is 53%. For the same compound, the “granulation tissue % dry weight” value was found to be 68% with Granulation Tissue [2] (sc., 2×75,0 mg/kg daily, section K) and 82% with Granulation Tissue [3] (2×50,0 mg/kg daily). Also, the “increase in body weight %” value in the data set on Granulation Tissue [3] (2×50,0 mg/kg daily) and in the data set on Granulation Tissue [3] (2×75,0 mg/kg daily) was 27% each time. Besides, the 50% lethal dose (LD50) in the data set “in vivo” (po) and in “in vivo” (sc) was about 1000 mg/kg each time.
In the case of `CCCC1C(=O)N2C(N(C)C)=Nc3ccc(C)cc3N2C1=O` (stereo not drawn) [Azapropazone, 3-Dimethylamino-7-methyl-1,2-(n-propylmalonyl)-1,2-dihydro-1,2-benzotriazine-dihydrate], the “Volume (increase in paw volume, blank control = 100%)” value in data set [1] (250.0 mg/kg) is reported as 98%. Besides, in data set [1] (400.0 mg/kg), the “Pain Threshold (change vs initial value)” value was -52% and the “Volume (increase in paw volume, blank control = 100%)” value is listed as 100%. Also, in data set [4] (100.0 mg/kg), the “1st Phase (paw edema)” value is 72%, the “2nd Phase (paw edema)” value is listed as 50% and the “3 Hrs. (total paw edema)” value is reported as 63%. In addition, in data set [4] (400.0 mg/kg), the “1st Phase (paw edema)” value is reported as 79%, the “2nd Phase (paw edema)” value is 21% and the “3 Hrs. (total paw edema)” value was 55%. Also, in data set [5] (250.0 mg/kg), the “60 Minutes (paw edema)” value came to 100%, the “120 Minutes (paw edema)” value stood at 93% and the “180 Minutes (paw edema)” value stood at 67%. In the data set with Granulation Tissue [2] (2 × 150 mg/kg daily), the “Granulation Tissue % (Dry Weight)” value is 76% and the “Increase in Body Weight” value is given as “not influenced”. In addition, in [6] (2 × 250.0 mg/kg), the Swelling is 91%. The “Notes (analgesic activity)” value in the data set with male mice (NMRI) [7] (i.g.) was “ineffective”.
Turning to `CCOC(=N)c1sc2ccccc2c1O` [Example 2, Ethyl 3-Hydroxy-Benzo[b]Thiophene-2-Carboximidate], the “Pain Threshold (change vs initial value)” value is recorded as “+10%” in data set [1] (31.2 mg/kg) and “+46%” in data set [1] (62.5 mg/kg). Besides, the “Volume (increase in paw volume, blank control = 100%)” value in [1] (31.2 mg/kg) was found to be 77%; in [1] (62.5 mg/kg), 50%; in data set [1] (125.0 mg/kg) it was 35%. In addition, the “1st Phase (paw edema)” value amounted to 65% in data set [4] (62.5 mg/kg), 65% in data set [4] (125.0 mg/kg) and 29% in data set [4] (250.0 mg/kg). Besides, the “2nd Phase (paw edema)” value in data set [4] (62.5 mg/kg) is reported as 73%; in data set [4] (125.0 mg/kg), 27%; in data set [4] (250.0 mg/kg) it was 20%. Moreover, the “3 Hrs. (total paw edema)” value is 62% in data set [4] (62.5 mg/kg), 42% in [4] (125.0 mg/kg) and 25% in [4] (250.0 mg/kg). The “60 Minutes (paw edema)” value was 36% in [5] (25.0 mg/kg) and 62% in data set [5] (50.0 mg/kg). For the same compound, the “120 Minutes (paw edema)” value in data set [5] (25.0 mg/kg) is 44%; in [5] (50.0 mg/kg), 40%. The “180 Minutes (paw edema)” value in data set [5] (25.0 mg/kg) came to 50%; in [5] (50.0 mg/kg), 5%. In addition, in the data set with Granulation Tissue [2] (2 × 75 mg/kg daily), the “Granulation Tissue % (Dry Weight)” value came out at 78%. Also, the “Increase in Body Weight” value in the data set on Granulation Tissue [2] (2 × 75 mg/kg daily) and in the data set on Granuloma Pouch was “not influenced” throughout. For the same compound, the “Granuloma Pouch Dry Weight” value in the data set on Granuloma Pouch stood at 70%. In the data set on Granuloma Pouch, this compound came in with a Secretion of 59%. The Swelling in [6] (2 × 125.0 mg/kg) was 81%. In addition, the figures for the analgesic activity result (with male mice (NMRI) [7] (as shown in (H)); in [10] (compared to customary anti-inflammatory preparations)) were “sufficient analgesic activity” and “particularly marked”, respectively. For the same compound, in data set [8] (150 mg/kg vs 300 mg/kg acetylsalicylic acid), the antipyretic effect entry is “considerably more effective than 300 mg/kg of acetylsalicylic acid”. For the same compound, the “antipyretic effect (decreasing body temperature)” value in [8] (yeast fever, vs control substances) was “superiority of the Example 2 substance for decreasing body temperature; also recorded: stronger than that of comparable substances”. Further, the ED50 in data set [9] (Rattus norvegicus) is 93.1 mg/kg. Moreover, the therapeutic ratio in data set [9] (from ED50 and LD50 (A)) is on record as 42.9. In addition, the anti-inflammatory effect entry was “proved in all test models; also recorded: of the same order as that of the most potent commercially available anti-inflammatory preparations” in data set [10] (all test models) and “clear anti-inflammatory effect” in data set [10] (doses as low as 50 mg/kg). In data set [10] (in vivo), the “toxicity levels vs standard substances” value is given as “very favorable”. The same compound registered an LD50 in the data set on male mice (NMRI) [11] of 3.890 mg/kg.

One may read the LD50 as the dose at which mortality reaches 50%. Low readings indicate greater toxicity, high ones lower toxicity. What is called ED50 is the midpoint of the dose-response relation.
